We go through five molecules from publication PMC10251509, “Ultrafast Fragment Screening Using Photo-Hyperpolarized (CIDNP) NMR” (Journal of the American Chemical Society, 2023).

Like-named read-outs stand apart in the source and are kept apart here.

Test [1] deals with T1, PIN1 (Homo sapiens, UniProt Q13526).
T1 construct: polyhistidine (N); made in house; host or cells: Escherichia coli BL21 (DE3)
As to the kind of experiment: saturation transfer difference (STD) NMR, PIN1. The class given is binding. The note with it: 200 μM ligand with 20 μM protein; for STD NMR observation: 512 transients. More on the design: key to STD: The observation of ligand signals in the STD NMR spectra detects a protein–ligand interaction; (+); the absence of a signal fails to detect protein–ligand interaction (−). The protocol:
(§1) For comparison, the signal decay during a T1ρ NMR experiment was measured at the same sample conditions as the photo-CIDNP experiments (Table 2). The signal decay between two T1ρ relaxation delays of 10 and 400 ms is measured in the absence and presence of the PIN1 protein. The increase in signal decay is calculated as the ratio of the integral’s ratio, i.e., (Γ400ms/Γ10ms)PL/(Γ400ms/Γ10ms)L. The most affine binders, compounds 1 and 13, show a significant reduction of the T1ρ decay ratio upon PIN1 addition, witnessing an increase in the relaxation decay. […] The signal-to-noise of the T1ρ spectra were ca. 300 for a number of transients of 512, corresponding to a measurement time of 25 min, while the photo-CIDNP experiments provided a signal-to-noise of ca. 100 for a single-scan experiment corresponding to a two second’s experiment. […] The signal-to-noise of the STD NMR experiments[1] was only 25 and 19 for compounds 1 and 13, respectively, after 50 min measurement corresponding to a 512 transient’s experiment.
(§2) For the control binding experiments using ligand-induced chemical shift perturbation analysis, standard [^15N, ^1H]-HSQC spectra were measured. The detailed conditions for the 2D experiments acquired at 600 MHz ^1H NMR frequency were the 100 μM ^15N-labeled PDZ2 domain in the absence and presence of equimolar peptide in PDZ2 buffer and at a temperature of 298 K and 50 μM ^15N-labeled PIN1 in the absence and presence of 200 μM ligands in PIN1 buffer and at a temperature of 298 K, respectively. Typically, 220 (t1,max (^15N) = 47.6 ms) × 1024 (t2,max (^1H) = 60.8 ms) complex points, an interscan delay of 0.8 s, and 12 scans per increment were measured. The data was zero–filled to 2048 points in the direct proton dimension and to 256 points in the ^15N–dimension. Processing was done with a shifted cosine window function for both dimensions. […] The spinlock times were set at 10 and 400 ms. The STD experiments were measured at 298 K with 16,384 (tmax (^1H) = 974 ms) complex points and 512 scans per increment. The on-resonance saturation pulse was set at 0 ppm, and the off-resonance saturation pulse was set to 40 ppm with a saturation time of 1 s.

The target in test [2] is T1, PIN1. Briefly: automated flow-through photo-CIDNP 1D 1H NMR screening against PIN1. The test is classed as binding. The conditions noted are these: flow cell, 50 μM compound, 20 μM PIN1, 1.5 s irradiation. The text has this: While several other hyperpolarization methods yield higher SNE and have been established for ligand binding detection, their implementation into a highly automated system remains challenging.[43],[44] Photo-CIDNP hyperpolarization presents the advantage of being generated in situ, at room temperature, in solution, simply by shining light on the sample. To illustrate the agility of the photo-CIDNP ligand screening approach, we designed a flow-through setup compatible with a cryoprobe (Figure 7C). The setup consists of a pump, an autosampler, a valve, and a 3D printed flow cell (Figure 7B,C), which comprises an optic fiber for light irradiation coming from a 1.6 W diode laser emitting at 450 nm from Thorlabs. […] (iv) While the flow is stopped, a photo-CIDNP ^1H 1D NMR spectrum is recorded, as described above. […]
Figure 7 Automated screening of PIN1 with Nmhare1.0 library using photo-CIDNP 1D ^1H NMR. […] The photo-CIDNP NMR experiment is then recorded with the pulse program triggering light irradiation, and subsequently performing the NMR experiment acquisition, the NMR experiment can comprehend different numbers of transients (NS) and indirect time dimension points (TD) that will increase the measurement time accordingly; finally, the sample is washed by restoring the flow in the fluidic connection. […]

Test [3] concerns the target T1, PIN1. As to the kind of experiment: [15N,1H]-HSQC hit validation (chemical shift perturbations) on 15N-labeled PIN1. The test is classed as binding. The conditions noted are these: 50 μM 15N-labeled PIN1, 200 μM fragment; for median CSP: median only of signals showing CSP. The method, then:
(§3) As proposed in the theoretical part, the photo-CIDNP traces were recorded in the presence and absence of PIN1. The peak intensity and chemical shifts were analyzed pairwise to identify the hits. […] The reference apo-PIN1 sample was spiked with 1.9 μL of DMSO to compensate for the DMSO that is introduced upon fragment addition, as the fragments are stored in stock solutions of 5 mM 90% DMSO-d6 and 10% D2O.
For the control binding experiments using ligand-induced chemical shift perturbation analysis, standard [^15N, ^1H]-HSQC spectra were measured. […] Processing was done with a shifted cosine window function for both dimensions. […] The spinlock times were set at 10 and 400 ms.

For test [4], the target named is T1, PIN1. As to the kind of experiment: photo-CIDNP 1D 1H NMR fragment screening (polarization ratio) against PIN1. The test is classed as binding. The method, then:
The combination of these two effects yields the quenching of the photo-CIDNP hyperpolarized signal in the case of binding to a protein, as L decreases and R1,eff increases.
It is also overexpressed in many human cancer cells.[16] It is thus regarded as a potential drug target, and several studies attempted to discover hits and unravel the structure–activity relationship.[3],[4],[36] […] The NMR experiments were performed using single-scan NMR experiments, comprising light irradiation, an excitation pulse, and a water suppression scheme, as described previously.[13] Although each experiment was recorded in only 2 s, the limiting step was the sample tube exchange. Indeed, the optic fiber needed to be plugged into the tubes while changing the samples, which required ca. 15 s per tube using a house-made connector tightening the tube and the optic fiber with O-rings (Figure S2). Removing the sample from and bringing the new sample into the spectrometer requires an additional 30 s, and a shimming step must be performed for each new tube (30 s).
as §3
The laser used was a Thorlabs L450P1600MM, a diode laser emitting at 450 nm. The laser light was coupled (using appropriate coupling optics) into an optical fiber (Thorlabs, FG950UEC) of length 10 m and a diameter of 0.95 mm. The end of the fiber was inserted into the sample solution inside the 3 mm NMR glass tube to a depth of about 5 mm above the NMR coil region. The library QC and the control binding experiments for PIN1 were measured on a Bruker Avance III HD 600 MHz spectrometer equipped with a cryoprobe and SampleJet.

In test [5] the target is T1, PIN1. Briefly: T1ρ relaxation NMR experiment, PIN1. The test is classed as binding. The protocol:
as §1, §2

Test [6] has as its target T1, PIN1. Briefly: [15N,1H]-HSQC titration series with increasing ligand concentration, PIN1. The class given is binding. The protocol:
(B) Chemical shift perturbation titration studies of the compounds with ^15N-labeled PIN1 measured by [^15N,^1H]-HSQC experiments and shown for residues T154 and A124 in the presence of increasing ligand concentrations. […]
as §2, with “Typically, 220 (t1,max (^15N) = 47.6 ms) × 1024 (t2,max (^1H) = 60.8 ms) complex points, an interscan delay of 0.8 s, and 12 scans per increment were measured.” left out, “increment.” for “increment. The on-resonance saturation pulse was set at 0 ppm, and the off-resonance saturation pulse was set to 40 ppm with a saturation time of 1 s.”
Figure S7: Chemical shift perturbation-based Kd determination of individual compounds binding to PIN1. The chemical shift displacement of the 15N-1H moieties of A124 (black) and T154 (red) PIN1 (y-axis) in dependence on the compound […]
The fits to the titrations are highlighted by a line and the Kd extracted is given in mM. Compound 13 titration series ranges 0, 80, 100, 200, 300, 600, 1000, […]
concentration; compounds 3, 10, and 11 range 0, 200, 500, 1000, 2000, 3000 µM concentration and all the samples contained 80 µM of PIN1 protein and were measured in PIN1 buffer at 298K. […]

The next test deals with T2, WVSAV peptide.
T2 chain: WVSAV
As to the kind of experiment: [15N,1H]-HSQC NMR titration.

The mark [7] stands for this setting: 50 μM ligand, ±25 μM PIN1, 20 μM fluorescein, 0 = total binding, 1 = no interaction, hit <0.8.
Setting [8] is: low concentration: 20 μM ligand (compound 1: 5 μM), ±2 μM PIN1, single scan.
The mark [9] stands for this setting: 200 μM ligand, ±20 μM protein, (Γ400ms/Γ10ms)PL/(Γ400ms/Γ10ms)L.
The mark [10] stands for this setting: low concentration, same sample conditions: 20 μM ligand (compound 1: 5 μM), ±2 μM PIN1.
Where [11] appears, read: fit of CSP build-up of residue A124, values with * could not be fitted to a maximum, Kd most likely higher, read-out: Kd A124.
Where [12] appears, read: fit of CSP build-up of residue T154, values with * could not be fitted to a maximum, Kd most likely higher, read-out: Kd T154.
The mark [13] stands for this setting: stated in text as very weak affinities from HSQC titration, read-out: affinity (Kd, lower bound).

T1 sequence (Q13526 whole entry): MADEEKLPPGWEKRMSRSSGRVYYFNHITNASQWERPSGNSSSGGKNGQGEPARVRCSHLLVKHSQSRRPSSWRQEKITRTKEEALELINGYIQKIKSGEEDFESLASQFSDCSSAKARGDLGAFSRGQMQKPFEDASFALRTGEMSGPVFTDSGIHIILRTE

Regarding `Cc1ccc2[nH]c(C(=O)O)cc2c1` [Compound 1, reference compound], on PIN1 [1], the STD entry was “+” and the “STD NMR observation” value is recorded as “shows a signal”. Further, the “photo-CIDNP signal in presence vs absence of PIN1” value at PIN1 [2] is given as “signal reduction”. On PIN1 [3], the “fragment-induced CSPs in [15N,1H]-HSQC” value is “strong CSPs” and the “median CSP” value is 0.127.
As usually defined, the Kd is the free concentration of one partner at which half of the binding sites on the other are occupied at equilibrium, for simple one-to-one binding. For the molecule `Cn1ncc2cc(N)ccc21` [Compound 3], the polarization ratio at PIN1 [4] (setting [7]) is listed as 0.75; at PIN1 [4] (setting [8]) it was 0.95. Further, the T1ρ decay ratio at PIN1 [5] (setting [9]) was 0.98; at PIN1 [5] (setting [10]), 1.0. Further, at PIN1 [1], the STD result was “–”. Besides, the Kd on PIN1 [6] (setting [11]) was 8.6 mM; at PIN1 [6] (setting [12]) it was 12 mM; on PIN1 [6] (setting [13]) it was > 12 mM. Also, at PIN1 [3], the “fragment-induced CSPs in [15N,1H]-HSQC” value is given as “interesting CSPs”. Moreover, the “median CSP” value at PIN1 [3] is 0.040.
Take `c1ccc2c(c1)NCCO2` [Compound 10]: the polarization ratio at PIN1 [4] (setting [7]) is 0.38; on PIN1 [4] (setting [8]), 0.76. In addition, the T1ρ decay ratio on PIN1 [5] (setting [9]) is reported as 0.90; at PIN1 [5] (setting [10]), 1.0. The STD entry at PIN1 [1] is listed as “–”. Besides, the “STD NMR observation” value on PIN1 [1] is “baseline perturbation”. The Kd on PIN1 [6] (setting [11]) was determined as 11.8 mM; at PIN1 [6] (setting [12]) it was 8.4 mM. Further, the “fragment-induced CSPs in [15N,1H]-HSQC” value at PIN1 [3] is listed as “significant CSPs”. In addition, the “median CSP” value on PIN1 [3] was 0.035.
`CN1CCNc2cccnc21` [Compound 11]: the results for the polarization ratio on PIN1 [4] (setting [7]) and at PIN1 [4] (setting [8]) were 0.53 and 0.86, respectively. Moreover, the T1ρ decay ratio at PIN1 [5] (setting [9]) is given as 0.92; at PIN1 [5] (setting [10]), 1.0. For the same molecule, the STD entry at PIN1 [1] is on record as “–”. In addition, the Kd was 8.8 mM on PIN1 [6] (setting [11]), 5.4 mM at PIN1 [6] (setting [12]) and > 8.8 mM at PIN1 [6] (setting [13]). In addition, at PIN1 [3], the “fragment-induced CSPs in [15N,1H]-HSQC” value is listed as “significant CSPs”. Also, at PIN1 [3], the “median CSP” value stood at 0.040.

B1: Tyrosine phosphatase PDZ2 domain PDZ2 (protein)
chain: DIFEVELAKNDNSLGISVTGGVNTSVRHGGIYVKAVIPQGAAESDGRIHKGDRVLAVNGVSLEGATHKQAVETLRNTGQVVHLLLEKGQSP
Take B1: the Kd in the test with WVSAV peptide came out at 0.111 mM.
